From US12714698B2, “Compositions and methods for treating or preventing dermal disorders” (Drexel University, priority 2015, dated 2026)

Assays:
human fibroblasts = assay: Ethidium bromide mitochondrial stress in human fibroblasts
Excerpt: Human fibroblasts were exposed to ethidium bromide for 7 days and cell viability measured at that time.

[1] = tested on: seborrheic keratosis lesion; assay: Topical treatment of a seborrheic keratosis lesion; assay type: in vivo, human; conditions: 21 days, 10 μM rapamycin in an emulsified gel preparation
Protocol: FIG. 20 is a photograph of a seborrheic keratosis lesion before and after 21 days of treatment with 10 μM rapamycin in an emulsified gel preparation as in FIG. 19.

[2] = tested on: human cardiac fibroblasts; assay: Immunoblot of senescence markers (p53, p21, p16, lamin B1, IL-6); assay type: cell-based
Protocol: (§1) Cell culture experiments utilizing NRTIs were of the following design. Cultures of either human lung or cardiac fibroblasts were cultivated according to standard culture protocols for these cells (Cristofalo, et al., Journal of Tissue Culture Methods 1980, 6:117-121). Parallel sets of cultures were maintained in normal growth media or in normal growth media with the addition of 1 nM rapamycin. Cultures were maintained with 1 nM rapamycin (Enzo Biologicals) for two weeks before exposure to NRTIs. Cell cultures were exposed to NRTIs at indicated concentrations in individual experiments (generally 10-20 μg/ml) for 7 days, with a change of media and fresh NRTIs at day 4. Mitochondrial measurements, bioanalyzer measurements, immunoblotting for protein expression and phosphorylation status, and assays for senescence were performed at the end of this 7-day period.
(§2) Cell culture reagents were from Cellgro, unless indicated. WI-38 fetal-lung primary human fibroblasts or human cardiac fibroblasts were grown in MEM supplemented with 10% fetal bovine serum, 1% L-glutamine, MEM vitamins, and MEM non-essential amino acids. Cells were maintained in a 37° C. in 5% CO2 incubator. For treatment studies, cells were treated with 1 nM rapamycin (Enzo Biologicals) for two weeks before treatment with NRTIs. Cells were maintained by trypsinization and reseeding at a cell density of 1×10^4/cm^2 every 7 to 10 days. Emtricitabine (FTC) and tenofovir disoproxil fumarate (TDF) were kindly provided by the NIH AIDS Research & Reference Reagent program. During the 7-day exposure to the NRTIs, the pharmacologic inhibitors PD98059 (10 μM, Santa Cruz Biotechnologies), BI-D1870, GW5074, and SB203580 (10 μM, Enzo Biologicals) were added to the culture medium either during the final 48 hours or for the final 2 hours depending upon the experiment. During the 7-day exposure to NRTIs, Trolox (500 μM) and N-acetylcysteine (100 μM, Acros Organics) were added every other day. Mito-Q (20 nM) and TPP (20 nM) were kindly provided by Dr. Brett Kaufmann at the University of Pennsylvania School of Veterinary Medicine. Vector and mt-catalase adenoviruses (MOI's 25, 50, and 75) were purchased from Gene Transfer Vector Core from the University of Iowa.
Cell protein extracts were prepared by extracting with radioimmunoprecipitation assay (RIPA) buffer containing a protease inhibitor cocktail (Sigma-Aldrich) and phosphatase inhibitors, NaF and sodium orthovanadate. Protein concentration was quantified using a bicinchoninic acid (BCA) assay (Pierce Biotechnology). […] For co-immunoprecipitation, cell protein extracts were prepared in HNTG buffer containing a protease inhibitor cocktail and quantified using BCA assay. […]

[3] = tested on: human cardiac fibroblasts; assay: Senescence-associated beta-galactosidase detection; assay type: cell-based; conditions: rapamycin treated cultures (1 nM)
Protocol: as §1
Assessment of SA-β-gal activity was performed by plating cells following respective treatments at low density (0.5×10^4/cm^2) to prevent false positive staining known to occur in high density cultures. […] Following incubation, cells were washed three times with PBS and at least 500 cells were counted for each sample in triplicates. Positive cells (blue cells) were expressed as a percentage of total cells.

[4] = tested on: human cardiac fibroblasts; assay: Mitochondrial membrane potential, mass, superoxide and total ROS by flow cytometry; assay type: cell-based; conditions: cultures grown with 1 nM rapamycin, NRTIs 7 days
Protocol: as §1, §2
Mitochondrial membrane potential was detected by incubating cells with 25 nM TMRE (Molecular Probes). Mitochondrial mass was evaluated by incubating the cells with 100 nM Mitotracker Green FM (Molecular Probes). Mitochondrial superoxide anion levels were detected by incubating the cells with 5 μM MitoSox Red (Molecular Probes). Total cellular levels of ROS were detected by incubating the cells with 10 μM 2′,7′-dichlorofluoroscein diacetate (DCF-DA; Sigma-Aldrich) in 1% fetal bovine serumsupplemented MEM and washing twice with Krebs Ringer phosphate glucose buffer (145 mM NaCl, 5.7 mM NaH2PO4, 4.86 mM KCL, 0.54 mM CaCl2), 1.22 mM MgSO4, and 5.5 mM glucose) following the incubation period. For the aforementioned assessments, incubation was performed at 37° C. in 5% CO2 for 30 minutes and cells were harvested in 2.5% trypsin-EDTA with serum-containing medium. Cells were immediately analyzed with a Guava EasyCyte Mini employing the Guava Express Plus program (Guava Technologies).

[5] = tested on: ribosomal S6 protein and MDM2; assay: Immunoblot of ribosomal S6 protein and MDM2 phosphorylation (mTORC1/p70S6K signaling); assay type: cell-based, human; conditions: agent added to NRTI-exposed cardiac fibroblasts
Protocol: as §1, §2
Cell protein extracts were prepared by extracting with radioimmunoprecipitation assay (RIPA) buffer containing a protease inhibitor cocktail (Sigma-Aldrich) and phosphatase inhibitors, NaF and sodium orthovanadate. Protein concentration was quantified using a bicinchoninic acid (BCA) assay (Pierce Biotechnology). Western blot analysis was performed using 15 to 30 μg of protein extracts that were run on SDS-PAGE and transferred onto nitrocellulose (Biorad) membranes. Blots were incubated with antibodies specific for: beta-actin (Sigma-Aldrich), TFAm, parkin, p16, phospho(S82)HSP27, HSP27 (Santa Cruz Biotechnologies), p53, 21, catalase, MDM2 (EMD Millipore), VDAC, phospho(S235/236)-ribosomal protein S6, ribosomal protein S6, phospho(S166)-MDM2, phospho(5473)-AKT, AKT, beta-tubulin (Cell Signaling), p62 (Enzo Biologicals), IL-6 (NeoBiolab), lamin B1, PINK1, and Mitoprofile Total OXPHOS Cocktail (complex I-NDUFB8 subunit, CII-SDHB subunit, […]2 subunit, and CIV-mitochondrial COX1 subunit) (Abcam) according to manufacturers' instructions. Western blots were visualized using IRDye 680 and 800 LI-COR secondary antibodies on a LI-COR Odyssey using LI-COR Odyssey software version 3.0 (LI-COR Biosciences). For co-immunoprecipitation, cell protein extracts were prepared in HNTG buffer containing a protease inhibitor cocktail and quantified using BCA assay. Protein extracts at the concentration of 0.5 mg were pre-cleared with protein A/G beads (Santa Cruz Biologicals) for 30 minutes. After centrifugation at 2,000 rpm for 5 minutes at 4° C., the supernatant was incubated with the primary antibody at manufacturer's recommended concentration overnight at 4° C. An IgG antibody (Cell Signaling) was used as a non-specific control.

## CO[C@H]1C[C@@H]2CC[C@@H](C)[C@@](O)(O2)C(=O)C(=O)N2CCCC[C@H]2C(=O)O[C@H]([C@H](C)C[C@@H]2CC[C@@H](O)[C@H](OC)C2)CC(=O)[C@H](C)/C=C(\C)[C@@H](O)[C@@H](OC)C(=O)[C@H](C)C[C@H](C)/C=C/C=C/C=C/1C [rapamycin]
Human fibroblasts; ethidium bromide for 7 days
  survival of human fibroblasts following mitochondrial stress: increases the survival
Human fibroblasts; rapamycin treated cells
  mitochondrial network following exposure to EthBr: able to maintain their mitochondrial network
Human fibroblasts; rapamycin treated cells, no toxin
  mitochondrial network: normal mitochondrial network
[1]
  severity of seborrheic keratosis lesion, visual inspection: significant reduction in severity
[2]; rapamycin (1 nM)
  NRTI-induced decrease of lamin B1: prevented this decrease
[2]; rapamycin treated cells (1 nM)
  levels of IL-6 following exposure to NRTIs: no increase
  levels of p53, p21 and p16 on NRTI exposure: did not increase
[3]
  SA-β-gal following exposure to NRTIs: no increase
[4]
  mitochondrial ROS following exposure to NRTIs: did not exhibit the same level of increase
  mitochondrial membrane potential following exposure to NRTIs: did not exhibit the same level of increase
  total cellular ROS following exposure to NRTIs: did not exhibit the same level of increase
[5]
  MDM2 phosphorylation in cells exposed to NRTIs: no increase
  ribosomal S6 phosphorylation in cells exposed to NRTIs: complete lack
